Laboratory results as given in patent US7262197B2, “Phospholipase C inhibitors for use in treating inflammatory disorders” (Janssen Pharmaceutica, N.V, priority 2003, dated 2007).
pIC50: −log10 of the molar value.

Target: T1, human PLC-β2 (Homo sapiens, UniProt Q00722)
T1 construct: made in house; host or cells: Sf9 cells (Spodoptera frugiperda), recombinant baculovirus
Assay: PLC assay using FlashPlates (immobilized [3H]PIP2 substrate, 96-well)
Assay type: biochemical
Conditions: for pIC50: hydrolysis of immobilized [3H]PIP2, purified recombinant human PLC-β2 or cytosolic human PLC-β2; for inhibition at up to 10 µM: printed in brackets beside IC50 >10 μM, test concentration not stated
Excerpt: The hydrolysis of phosphatidylinositol-4,5-bisphosphate (PIP2) by a specific phospholipase C-β2 (PLC-β2) produces two intracellular messengers, diacylglycerol (DAG) and inositol 1,4,5-trisphosphate (IP3), which mediate the activation of protein kinase C and intracellular Ca^2+ release. A conventional organic solvent extraction method is widely used for PLC assays to isolate IP3 from the substrate PIP2. The conventional PLC-β2 assay, however is terminated by addition of acidified organic solvents and subsequent extraction and phase separation. […] Accordingly, a preferred method to test the compounds of the present invention, was developed utilizing a 96-well plate assay for PLC-β2 using immobilized radiolabeled substrate to quantitatively measure the reduction in the substrate level without a need for organic solvent extraction. The automated PLC-β2 assay described herein provides a convenient method for quantitative measurement of phospholipase C activities in a high throughput fashion.
Ninety-six well Phospholipid FlashPlates were coated with 0.2 mL of 50 mM Tris/HCl (pH 7.4), 0.01% Ac-BSA and 50,000 cpm of ^[3H]PIP2 (phosphatidylinositol-4,5-bisphosphate) at 4° C. for 72 h. The wells were aspirated and washed twice with PBS. The reactions were conducted directly in the wells in PLC reaction buffer containing 50 mM Tris/HCl (pH 7.2), 2.75 mM EDTA (pH 7.3), 80 mM KCl, 10 mM LiCl, 0.04% DOC and 2 mM CaCl2 in the absence or presence of the purified recombinant human PLC-β2 (prepared as described hereafter) or cytosolic human PLC-β2 from […]. Reduction of radioactivity was monitored by a Packard TopCount instrument (Packard Instrument Company, Conn., USA).
Suspension cultures of Sf9 cells were maintained in a spinner flask at 27° C. and stirred at 90 rpm. The cells were grown in Grace's media supplemented with 10% (v/v) fetal bovine serum, 3.3 g/l yeastolate, 3.3 g/l lactalbumin hydrosylate, glutamine (6.4 mM final), 50 µg/ml gentamicin, and 50 μg/ml kanamycin. Suspension of Sf9 cells (1.0×10^6 cells/ml) were infected with 5 pfu/cell of recombinant baculovirus encoding PLC-β2 and incubated at 27° C. for 72 h. The cells were collected by centrifugation (500×g, 7 min, 4° C.) and disrupted by hypotonic lysis buffer containing 20 mM Tris/HCl, pH 7.4, 5 mM MgCl2, 2 mM EGTA, 200 βM PMSF, 200 βM benzamidine and 1 βM pepstatin A. The lysate was sonicated on ice and the nuclei and unbroken cells removed by centrifugation (500×g, 5 min, 4° C.). The supernatant was recovered and clarified by centrifugation (34,000 rpm, 60 min, 4° C.). The supernatant was used as a crude cytosolic fraction (Paterson, A., Boyer, J. L., Watts, V. J., Morris, A. J., Price, E. M., Harden, T. K. (1995) Concentration of enzyme-dependent activation of PLC β1 and PLC β2 by Gα11 and βγ subunits. Cellular Signalling 7, 709-720).
Crude cytosol prepared from Sf9 cells expressing PLC-β2 was purified initially by chromatography on a 10 ml column of Q-Sepharose FF, equilibrated in buffer A (25 mM HEPES, pH 7.2, 2 mM DTT, 2 mM EDTA, 2 mM EGTA, 200 μM PMSF, 200 μM benzamidine, 1 μM pepstatin A containing 10 mM NaCl). The column was washed with 20 ml of equilibration buffer and eluted with a 200-ml gradient of 110-410 mM NaCl in buffer A. The fractions containing PLC activity were pooled and diluted with buffer A. The diluted enzyme was applied to a 4 ml column of heparin-SepharoseCL-6B equilibrated in buffer A and the column washed with 70 ml of buffer A. The column was eluted with 80 ml of gradient of 0-1.0 M NaCl in buffer A, the column eluate collected in 3 ml fractions. […]

T1 sequence (Q00722 whole entry): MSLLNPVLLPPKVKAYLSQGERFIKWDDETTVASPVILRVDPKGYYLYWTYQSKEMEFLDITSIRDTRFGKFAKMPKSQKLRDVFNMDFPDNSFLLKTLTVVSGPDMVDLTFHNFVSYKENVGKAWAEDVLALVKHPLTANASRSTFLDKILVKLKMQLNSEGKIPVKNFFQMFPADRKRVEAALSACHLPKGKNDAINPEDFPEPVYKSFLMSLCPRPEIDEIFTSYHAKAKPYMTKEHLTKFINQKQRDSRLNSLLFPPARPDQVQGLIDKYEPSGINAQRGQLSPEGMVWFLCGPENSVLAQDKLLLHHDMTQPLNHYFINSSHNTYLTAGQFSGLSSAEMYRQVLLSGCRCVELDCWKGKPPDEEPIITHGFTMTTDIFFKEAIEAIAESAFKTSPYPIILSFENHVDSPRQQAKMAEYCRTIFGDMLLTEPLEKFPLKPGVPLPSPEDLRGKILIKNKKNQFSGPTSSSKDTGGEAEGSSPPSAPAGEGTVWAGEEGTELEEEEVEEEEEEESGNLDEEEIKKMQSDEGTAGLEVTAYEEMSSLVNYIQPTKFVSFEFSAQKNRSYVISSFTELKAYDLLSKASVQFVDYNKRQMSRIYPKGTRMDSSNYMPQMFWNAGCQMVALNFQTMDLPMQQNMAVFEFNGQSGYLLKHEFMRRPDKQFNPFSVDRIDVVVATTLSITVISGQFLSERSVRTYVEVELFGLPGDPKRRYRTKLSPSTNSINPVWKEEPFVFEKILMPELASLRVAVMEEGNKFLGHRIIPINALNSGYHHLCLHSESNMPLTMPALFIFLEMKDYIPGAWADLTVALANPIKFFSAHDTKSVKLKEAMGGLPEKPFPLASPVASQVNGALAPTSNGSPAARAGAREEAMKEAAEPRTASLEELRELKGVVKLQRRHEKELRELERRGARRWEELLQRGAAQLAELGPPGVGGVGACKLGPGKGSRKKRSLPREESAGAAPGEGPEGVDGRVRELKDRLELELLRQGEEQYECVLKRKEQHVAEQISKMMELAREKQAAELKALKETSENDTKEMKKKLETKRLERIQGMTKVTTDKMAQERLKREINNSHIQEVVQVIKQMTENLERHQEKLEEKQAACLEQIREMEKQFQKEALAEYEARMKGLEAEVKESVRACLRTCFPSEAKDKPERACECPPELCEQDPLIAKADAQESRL

| SMILES | pIC50 | inhibition at up to 10 µM [%] |
| --- | --- | --- |
| Cc1oc(-c2ccc(Cl)cc2)cc1C(=O)Nc1cc(C(=O)N2CCNCC2)ccc1N1CCN(C(c2ccccc2)c2ccccc2)CC1 [Cpd 2, 5-(4-chlorophenyl)-N-[2-[4-(diphenylmethyl)-1-piperazinyl]-5-(1-piperazinylcarbonyl)phenyl]-2-methyl-3-furancarboxamide] | 4.76 |  |
| O=C(Nc1cc(C(=O)N2CCNCC2)ccc1N1CCN(C(c2ccccc2)c2ccccc2)CC1)c1ccco1 [Cpd 3, N-[2-[4-(diphenylmethyl)-1-piperazinyl]-5-(1-piperazinylcarbonyl)phenyl]-2-furancarboxamide] | 4.67 |  |
| O=C(c1ccc(N2CCN(C(c3ccccc3)c3ccccc3)CC2)c(NS(=O)(=O)c2ccc(Cl)cc2)c1)N1CCNCC1 [Cpd 6, 4-chloro-N-[2-[4-(diphenylmethyl)-1-piperazinyl]-5-(1-piperazinylcarbonyl)phenyl]-benzenesulfonamide] | 5.06 |  |
| CS(=O)(=O)Nc1cc(C(=O)N2CCNCC2)ccc1N1CCN(C(c2ccccc2)c2ccccc2)CC1 [Cpd 8, N-[2-[4-(diphenylmethyl)-1-piperazinyl]-5-(1-piperazinylcarbonyl)phenyl]-methanesulfonamide] | 5.01 |  |
| CS(=O)(=O)c1ccc(N2CCN(C(c3ccccc3)c3ccccc3)CC2)c(NC(=O)Nc2ccccc2)c1 [Cpd 9, N-[2-[4-(diphenylmethyl)-1-piperazinyl]-5-(methylsulfonyl)phenyl]-N′-phenyl-urea] | < 5.00 | 60 |
| COC(=O)c1ccc(N2CCN(C(c3ccc(F)cc3)c3ccc(F)cc3)CC2)c(NC(=O)Nc2ccccc2)c1 [Cpd 11, 4-[4-[bis(4-fluorophenyl)methyl]-1-piperazinyl]-3-[[(phenylamino)carbonyl]amino]-benzoic acid methyl ester] | < 5.00 |  |

More lines, now with the values ahead:

| pIC50 | inhibition at up to 10 µM [%] | SMILES |
| --- | --- | --- |
| 4.90 |  | Cc1ccc(C(=O)Nc2cc(C(=O)N3CCNCC3)ccc2N2CCN(C(c3ccccc3)c3ccccc3)CC2)cc1 [Cpd 1, N-[2-[4-(diphenylmethyl)-1-piperazinyl]-5-(1-piperazinylcarbonyl)phenyl]-4-methyl-benzamide] |
| < 4.60 |  | CCC(=O)Nc1cc(C(=O)N2CCNCC2)ccc1N1CCN(C(c2ccccc2)c2ccccc2)CC1 [Cpd 4, N-[2-[4-(diphenylmethyl)-1-piperazinyl]-5-(1-piperazinylcarbonyl)phenyl]-propanamide] |
| 4.97 |  | Cc1ccc(S(=O)(=O)Nc2cc(C(=O)N3CCNCC3)ccc2N2CCN(C(c3ccccc3)c3ccccc3)CC2)cc1 [Cpd 5, N-[2-[4-(diphenylmethyl)-1-piperazinyl]-5-(1-piperazinylcarbonyl)phenyl]-4-methyl-benzenesulfonamide] |
| < 4.60 |  | CCCCS(=O)(=O)Nc1cc(C(=O)N2CCNCC2)ccc1N1CCN(C(c2ccccc2)c2ccccc2)CC1 [Cpd 7, N-[2-[4-(diphenylmethyl)-1-piperazinyl]-5-(1-piperazinylcarbonyl)phenyl]-1-butanesulfonamide] |
| < 5.00 | 47 | O=C(Nc1ccccc1)Nc1cc(CO)ccc1N1CCN(C(c2ccc(F)cc2)c2ccc(F)cc2)CC1 [Cpd 10, N-[2-[4-[bis(4-fluorophenyl)methyl]-1-piperazinyl]-5-(hydroxymethyl)phenyl]-N′-phenyl-urea] |
